Reference: ChEMBL document CHEMBL5055682, “Relaxed Substrate Requirements of Sterol 14α-Demethylase from Naegleria fowleri Are Accompanied by Resistance to Inhibition” (J Med Chem, 2021)

Legend:
[1] = Inhibition of Naegleria fowleri CYP51 catalytic activity using [3-3H]sterol substrate measured after 1 hr by RP-HPLC analysis
[2] = Binding affinity to Naegleria fowleri CYP51 expressed in Escherichia coli HMS-174 (DE3) assessed as dissociation constant by quadratic Morrison equation
Naegleria fowleri [3] = assay: Substrate activity at Naegleria fowleri CYP51 expressed in Escherichia coli HMS-174 (DE3) assessed as Kcat/Km by spectroscopy
Naegleria fowleri [4] = assay: Substrate activity at Naegleria fowleri CYP51 expressed in Escherichia coli HMS-174 (DE3) assessed as Km by spectroscopy
[5] = Substrate activity at Naegleria fowleri CYP51 expressed in Escherichia coli HMS-174 (DE3) assessed as dissociation constant by Morrison equation
Naegleria fowleri [6] = assay: Substrate activity at Naegleria fowleri CYP51 expressed in Escherichia coli HMS-174 (DE3) assessed as Kcat by spectroscopy
[7] = Substrate activity at Naegleria fowleri CYP51 expressed in Escherichia coli HMS-174 (DE3) assessed as dissociation constant by Michaelis-Menten equation
[8] = Irreversible inhibitor of Trigo-noscuta cruzi CYP51
[9] = Irreversible inhibitor of Typho-chrestus brucei CYP51

SMILES	IC50 [1] [µM]	Kd [2] [µM]	other results
C[C@@H](c1ncncc1F)[C@](O)(Cn1cncn1)c1ccc(F)cc1F [VORICONAZOLE]	3.22	–	–
O=C(N[C@@H](Cn1ccnc1)c1ccc(Cl)cc1Cl)c1ccc(-c2nnc(-c3ccc(F)c(F)c3)o2)cc1	1.28	0.003	–
CC[C@@H]([C@H](C)O)n1ncn(-c2ccc(N3CCN(c4ccc(OC[C@@H]5CO[C@@](Cn6cncn6)(c6ccc(F)cc6F)C5)cc4)CC3)cc2)c1=O [POSACONAZOLE]	0.69	–	–
O=C(N[C@@H](Cn1ccnc1)c1ccc(-c2ccc(F)cc2)cc1Cl)c1ccc(-c2nnc(-c3ccccc3)o2)cc1	0.68	0.025	–
C=C(CC[C@@H](C)[C@H]1CC[C@@]2(C)C3=C(CC[C@]12C)[C@@]1(C)CC[C@H](O)[C@@H](C)[C@@H]1CC3)C(C)C [OBTUSIFOLIOL]	–	–	kcat/Km (Naegleria fowleri [3]): 53300 M⁻¹ s⁻¹; Km (Naegleria fowleri [4]): 8 µM; Kd [5]: 0.023 µM; kcat (Naegleria fowleri [6]): 0.433 s⁻¹
CC(C)=CCC[C@@H](C)[C@H]1CC[C@@]2(C)[C@@H]3CC[C@H]4C(C)(C)[C@@H](O)CC[C@@]45C[C@]35CC[C@]12C	–	–	Kd [7]: 0.829 µM
O=C(N[C@@H](Cn1ccnc1)c1ccc(Cl)cc1Cl)c1ccc(-c2nnc(-c3ccccc3)o2)cc1	–	0.005	IC50 [8]: 5.6 µM; IC50 [9]: 5.6 µM
O=C(N[C@@H](Cn1ccnc1)c1ccc(Cl)cc1Cl)c1ccc(-c2nnc(-c3ccc(C(F)(F)F)c(F)c3)o2)cc1	0.93	0.011	–
O=C(N[C@@H](Cn1ccnc1)c1ccc(-c2ccc(F)cc2)cc1F)c1ccc(-c2nnc(-c3ccccc3)o2)cc1	5.94	0.01	–
CC(=O)N1CCN(c2ccc(OCC3COC(Cn4ccnc4)(c4ccc(Cl)cc4Cl)O3)cc2)CC1 (stereo not drawn) [KETOCONAZOLE]	–	0.005	–
CC(C)=CCC[C@@H](C)[C@H]1CC[C@@]2(C)C3=C(CC[C@]12C)[C@@]1(C)CC[C@H](O)[C@@H](C)[C@@H]1CC3	–	–	Kd [5]: 0.271 µM
O=C(N[C@@H](Cn1ccnc1)c1c(F)cc(-c2ccc(F)cc2)cc1F)c1ccc(-c2nnc(-c3ccccc3)o2)cc1	0.35	0.007	–
C[C@@H](c1nc(-c2ccc(C#N)cc2)cs1)C(O)(Cn1cncn1)c1cc(F)ccc1F (stereo partly drawn)	0.9	–	–
CC(C)=CCC[C@@H](C)[C@H]1CC[C@@]2(C)C3=C(CC[C@]12C)[C@@]1(C)CC[C@H](O)C(C)(C)[C@@H]1CC3 [LANOSTEROL]	–	–	kcat/Km (Naegleria fowleri [3]): 21700 M⁻¹ s⁻¹; Km (Naegleria fowleri [4]): 48 µM; Kd [5]: 0.028 µM; kcat (Naegleria fowleri [6]): 1.07 s⁻¹
CCC(C)n1ncn(-c2ccc(N3CCN(c4ccc(OCC5COC(Cn6cncn6)(c6ccc(Cl)cc6Cl)O5)cc4)CC3)cc2)c1=O (stereo not drawn) [ITRACONAZOLE]	2.05	–	–
